# Results reported in patent publication US10786481B2, “Hydroquinone compounds, preparation methods therefor, and use in anti-tumor or immunomodulation therapy” (Biomedical Analysis Center, Academy of Military Medical …, priority 2016, dated 2020).
# Like-named read-outs stand apart in the source and are kept apart here.
# What was measured:
# monocytes = conditions: via inhibition of ROS generation; Cell Research 2013, 23:898-914; cited from earlier work
# [1] = system: humanized embryonic nephrocyte (HEK293 cell); experiment: Cytotoxicity, MTS method, HEK293 cell; type: cell-based; conditions: Homo sapiens
# Source text: (§1) The toxicity of compounds is detected with MTS method in the immortalized mice bone marrowmacrophages (IBMM), mice embryonic fibroblast (NIH3t3) and humanized embryonic nephrocyte.
# Her2 breast cancer = experiment: Mice model with Her2 breast cancer; type: in vivo
# [2] = system: lung cancer in K-rasLA2 model mice; conditions: fodder of 0.75% BHA; Cell Research 2013, 23:898-914; cited from earlier work
# [3] = Acute toxicity in mice, up-down method; type: in vivo; conditions: mouse, in vivo
# Protocol: (§2) Detecting the acute toxicity of some of the compounds by using up-down method. Intragastric administrating a drug to the mice of 20˜22 g; lyase is corn oil, fasting for 12 h before administration, with free drinking.
# [4] = system: immortalized mice bone marrowmacrophages (IBMM); experiment: Cytotoxicity, MTS method, IBMM cell; type: cell-based; conditions: Mus musculus, Bone marrow macrophage, read-out: IC50(mM) IBMM cell
# Source text: as §1
# mice [5] = experiment: Toxicology experiment of BHA in mice; type: in vivo
# [6] = system: mice embryonic fibroblast (NIH3t3); experiment: Cytotoxicity, MTS method, NIH3T3 cell; type: cell-based; conditions: Mus musculus
# Source text: as §1
# macrophages M2 = experiment: Polarization of macrophages M2; conditions: FIG. 1
# [7] = Drug metabolism tests of BHA in vivo; set-up: species or system mice; conditions: for half-life: mouse, plasma
# [8] = Release experiment of target compound in human plasma; conditions: 37° C., 5 min to 9 h
# Protocol: Mobile phase: gradient elution; A: water; B: methanol;
# Chromatographic column: CAPCEL PAK MF PH-1;
# Detecting instrument: TQ-S; ion source: APCI; ion detection mode: MRM;
# Dissolving the target compound with DMSO, then diluting to 5 μg/mL with the normal saline of 0.9%. The human blank plasma after subpackage is preserved at −70° C., unfreezing in a refrigerator at 4° C. when used. Take 20 μL of the blank plasma, adding 20 μL of the target compound solution as above formulated, vortexing for 15 s, and left it in the water bath at 37° C. […] Take the supernatant and inject 10 μL for detection.
# mice [9] = experiment: Acute toxicity in mice, up-down method; type: in vivo; conditions: mice, intragastric
# Protocol: as §2
# [10] = po, mice, intragastric, corn oil, up-down method, unit inferred
# [11] = HEK293, MTS method, read-out: IC50(mM) HEK293 cell
# [12] = NIH3T3, MTS method, read-out: IC50(mM) NIH3T3 cell
release of BHA in human plasma [8],Molecule,differentiation of monocytes toward M2 macrophages (monocytes),"LD50 [3, 10]","IC50 [1, 11]",acute toxicity compared with BHA (mice [9]),IC50 ([4]; MTS method),"IC50 [6, 12]",further results
–,COc1cc(C(C)=O)ccc1O [Apocynin],inhibit differentiation of monocytes toward M2 macrophages,–,–,–,–,–,–
–,"COc1ccc(O)c(C(C)(C)C)c1 [BHA, 2-tert-butyl-4-methoxyphenol]",inhibit differentiation of monocytes toward M2 macrophages,1100 mg/kg,–,–,–,–,"IC50 ([1]; HEK293, read-out: IC50(mM) HEK293 cell): 0.325 mM; anti-tumor effects (Her2 breast cancer; HER2 mice model, 50-1000 mg/kg BW dosed in portions): obvious anti-tumor effects; metastasis in head (Her2 breast cancer; Her2 tumor model with the breast cancer, FIG. 1A): not observed; generation of lung cancer [2]: completely inhibited; LD50 ([3]; oral, acute toxicity in mice, as restated): 1100 mg/kg; IC50 [4]: 0.218 mM; toxic signs (mice [5]; 600 mg/kg, recover after half an hour): central effect of partially “hangover” state; mortality (mice [5]; 1100 mg/kg): Half of the mice with 1100 mg/kg are caused to die; time until symptoms of the toxic reaction disappear in survival mice (mice [5]; 1100 mg/kg): 30 to 60 min; toxic effect, long term dosing (mice [5]; low dose, long term dosed for two years): toxic effect is not seen; IC50 ([6]; NIH3T3, read-out: IC50(mM) NIH3T3 cell): 0.267 mM; polarization effect of macrophages M2 (macrophages M2): inhibits the polarization effect of macrophages M2; half-life ([7]; FIG. 2A and B, read-out: half-life of BHA in vivo): 30 to 60 min; half-life ([7]; mice, oral, read-out: T112 (half-life)): 20 min; time to peak ([7]; oral): 5 min"
–,CC(=O)N[C@@H](CS)C(=O)O [NAC],inhibit differentiation of monocytes toward M2 macrophages,–,–,–,–,–,–
–,CC1(C)CCCC(C)(C)N1[O] [TEMPO],inhibit differentiation of monocytes toward M2 macrophages,–,–,–,–,–,–
releases BHA,"COc1ccc(OC(=O)C2CCCC2)c(C(C)(C)C)c1 [XH2039-6, (2-tert-butyl-4-methoxyphenol) cyclopentanecarboxylate]",–,–,0.136 mM,–,0.171 mM,0.229 mM,–
releases BHA,"COc1ccc(OC(=O)CC2CC2)c(C(C)(C)C)c1 [XH2040-2, (2-tert-butyl-4-methoxyphenol) cyclopropylacetate]",–,–,0.237 mM,–,0.202 mM,0.232 mM,–
releases BHA,"CCCCCCCC(=O)Oc1ccc(OC)cc1C(C)(C)C [XH2040-4, (2-tert-butyl-4-methoxyphenol) octanoate]",–,–,0.283 mM,–,0.198 mM,0.366 mM,–
releases BHA,"COc1ccc(OC(=O)Cc2cc(F)c(F)cc2F)c(C(C)(C)C)c1 [XH2041-2, (2-tert-butyl-4-methoxyphenol) 2,4,5-trifluorophenylacetate]",–,–,0.349 mM,–,0.156 mM,0.26 mM,–
releases BHA,"COc1ccc(OC(=O)CC(F)(F)F)c(C(C)(C)C)c1 [XH2044-1, (2-tert-butyl-4-methoxyphenol) 3,3,3-trifluoropropionate]",–,–,0.206 mM,–,> 0.7 mM,0.353 mM,–

Molecule,release of BHA in human plasma [8],differentiation of monocytes toward M2 macrophages (monocytes),"LD50 [3, 10]","IC50 [1, 11]",acute toxicity compared with BHA (mice [9]),IC50 ([4]; MTS method),"IC50 [6, 12]",further results
"COc1ccc(OC(C)=O)c(C(C)(C)C)c1 [XH2006, 2-tert-butyl-4-methoxyphenol acetate]",releases BHA,–,> 1200 mg/kg,0.118 mM,lower than that of 2-tert-butyl-4-methoxyphenol-oxyl (BHA),0.443 mM,0.021 mM,–
"COc1ccc(OC(=O)c2cccnc2)c(C(C)(C)C)c1 [XH2010, 2-tert-butyl-4-methoxyphenol nicotinate]",releases BHA,–,> 1200 mg/kg,0.207 mM,lower than that of 2-tert-butyl-4-methoxyphenol-oxyl (BHA),0.175 mM,0.186 mM,–
"COc1ccc(OC(=O)c2ccncc2)c(C(C)(C)C)c1 [XH2011, 2-tert-butyl-4-methoxyphenol isonicotinate]",releases BHA,–,> 1300 mg/kg,0.311 mM,lower than that of 2-tert-butyl-4-methoxyphenol-oxyl (BHA),0.119 mM,0.0326 mM,–
(2-tert-butyl-4-methoxyphenol) morpholin-4-yl acetate [XH2044-2],releases BHA,–,–,–,lower than that of 2-tert-butyl-4-methoxyphenol-oxyl (BHA),–,–,"LD50 (mice [9]; corn oil, up-down method, unit inferred): > 1300 mg/kg"
